Tested on: LC3b, p62
Assay: Western blot of autophagy markers LC3b I, LC3b II and p62 in Dex-treated myotubes
Type: cell-based, mouse
Method: C2C12 murine skeletal muscle myoblasts were obtained from Koram Biotech (Republic of Korea). The cells were maintained in DMEM growth medium supplemented with 10% FBS, 1% penicillin, and streptomycin. When myoblasts proliferated to approximately 90%, they were differentiated into muscle fibers by treating them with DMEM differentiation medium supplemented with 2% HS, 1% penicillin, and streptomycin for 96 hours. Differentiated muscle fibers were treated with 10 μM Dex for 24 hours to induce sarcopenia. To evaluate the degree of differentiation of muscle cells, differentiating myoblasts were treated with the corresponding compound in differentiation medium for 24 or 48 hours. The concentration of intracellular protein was measured using the Bradford assay (Bio-Rad, USA, CA), and electrophoresis was performed by loading on 10% and 12% polyacrylamide gels. Afterwards, the separated proteins were transferred to a PVDF membrane, and the primary antibody used was diluted 1:1000 in TBS-T containing 5% skim milk and incubated overnight at 4° C. Secondary antibodies were diluted 1:2000 and incubated for 35 minutes at room temperature (RT). Band intensity was measured using ImageJ 1.52 software (National Institutes of Health, USA), and intracellular protein was normalized to α-tubulin.

`CC(C)OC(=O)C(C(=O)OC(C)C)=C1SC=CS1` [malotilate, Malotilate] was tested, and the autophagy was “reduced”, the “expression of p62” value was “increases” and the “ratio of LC3bII to LC3bI” value was “decreases”.

— patent US20250332143A1, “COMPOSITION COMPRISING ALOX5 INHIBITOR FOR PREVENTING OR TREATING SARCOPENIA” (PLUTO Inc., priority 2022, published 2025)
